This note sets out measurements from paper PMC7664879, “Discovery of 12O—A Novel Oral Multi-Kinase Inhibitor for the Treatment of Solid Tumor” (Molecules, 2020).

Structures are written as SMILES.

In data set [1] the target is T1, CDK6/cyclinD3(h) (Homo sapiens, UniProt Q00534).
T1 construct: purchased Eurofins (KinaseProfiler service)
As to the kind of experiment: Kinase inhibition assay (Eurofins KinaseProfiler). It counts as biochemical. The settings on record: ATP at Km. On the procedure:
(§1) Kinase inhibition profiles were determined using KinaseProfiler services provided by Eurofins, and ATP concentrations used are the Km of corresponding kinases.
(§2) CDK1/cyclinB (h) (CDK2/cyclinA (h), CDK3/cyclinE (h), CDK4/CyclinD(h), CDK5/p25 (h), CDK6/cyclinD3 (h)) were incubated with 8 mM MOPS pH 7.0, 0.2 mM EDTA, 0.1 mg/mL histone H1, 10 mM MgAcetate and [gamma-33P]-ATP (specific activity and concentration as required).
(§3) All the reactions above were initiated by the addition of the Mg/ATP mix. After incubation for 40 min at room temperature, the reaction was stopped by the addition of phosphoric acid to a concentration of 0.5%. An amount of 10 µL of the reaction was then spotted onto a P30 filtermat and washed four times for 4 min in 0.425% phosphoric acid and once in methanol prior to drying and scintillation counting.

The target of data set [2] is T2, CDK5/p25(h) (Homo sapiens, UniProt Q00535).
T2 construct: purchased Eurofins (KinaseProfiler service)
T2 sequence (Q00535 whole entry): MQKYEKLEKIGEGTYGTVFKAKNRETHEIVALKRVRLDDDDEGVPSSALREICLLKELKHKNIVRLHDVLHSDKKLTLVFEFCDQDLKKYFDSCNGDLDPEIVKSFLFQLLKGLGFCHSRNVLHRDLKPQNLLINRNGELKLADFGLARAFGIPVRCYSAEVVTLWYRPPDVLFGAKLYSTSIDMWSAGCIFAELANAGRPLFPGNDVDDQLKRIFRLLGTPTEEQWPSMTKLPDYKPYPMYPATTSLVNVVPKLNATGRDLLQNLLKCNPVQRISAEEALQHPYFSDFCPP
T2 sequence (Q15078 99-307 partner limits assumed): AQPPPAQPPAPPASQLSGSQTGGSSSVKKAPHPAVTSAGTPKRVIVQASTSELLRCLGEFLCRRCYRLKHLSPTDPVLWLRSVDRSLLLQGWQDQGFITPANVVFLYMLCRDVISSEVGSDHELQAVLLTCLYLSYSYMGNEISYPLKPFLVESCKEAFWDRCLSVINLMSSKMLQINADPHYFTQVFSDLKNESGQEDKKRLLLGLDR
As to the kind of experiment: Kinase inhibition assay (Eurofins KinaseProfiler). It counts as biochemical. The settings on record: ATP at Km. On the procedure: as §1, §2, §3

Data set [3] addresses T3, CDK4/cyclinD(h) (Homo sapiens, UniProt P11802).
T3 construct: purchased Eurofins (KinaseProfiler service)
Put plainly: Kinase inhibition assay (Eurofins KinaseProfiler). The conditions noted are these: ATP at Km. It counts as biochemical. On the procedure: as §1, §2, §3

Data set [4] addresses T4, CDK1/cyclinB(h) (Homo sapiens, UniProt P06493).
T4 construct: purchased Eurofins (KinaseProfiler service)
Put plainly: Kinase inhibition assay (Eurofins KinaseProfiler). In kind it is biochemical. The conditions noted are these: ATP at Km. On the procedure: as §1, §2, §3

Data set [5] relates to SiHa xenograft. Put plainly: SiHa xenograft mouse model, oral dosing. In kind it is in vivo. The conditions noted are these: for Tumor growth inhibition (TGI): SiHa xenograft mice, every day. On the procedure: Based on a desirable set of in vitro properties, 12O was finally selected for further in vivo evaluation. We proceeded to test the antitumor efficacy of 12O in SiHa xenograft mice. Animals were orally given three doses (5, 10, and 20 mg Kg^−1) of 12O, one dose (20 mg Kg^−1) of cisplatin (positive control), or vehicle (control) every day. […] Of note, In Figure 5c, an obvious decrease in tumor size was also observed at the end of observation. The average tumor weight (Figure 5d) of the 12O-treated group was less than that of cisplatin. HE staining was further performed to identify the efficacy of 12O (Figure 5e). […] Additional kinase activities of 12O intimately associated with the growth, survival, and metastasis in tumor cells, may contribute to the antitumor activity, but may also cause side effects. Multi-target kinase inhibitor extensively used in clinic cancer therapy, while hampered by associated adverse reactions and side-effect. Thus, further evidence is needed. An in-depth study of compound 12O is ongoing in our laboratory and will be reported in due course.
All animal studies were conducted under the approval of the Experimental Animal Management Committee of Nankai University (No. NKUEC20190228). Six- to eight-week-old female BALB/c nude mice were purchased from Beijing HFK Bioscience Company. Mice were fed in an SPF-level laboratory animal room. The mice were kept in independent ventilation cages with autoclaved corncobs at the bottom of the cage as bedding. The dimensions of the cages were 390 × 180 × 180 mm. Environmental factors: Average air temperature ranged from 20 to 26 °C with average relative air humidity ranging from 40 to 70%. Noise was below 60 decibels. Ventilation times were more than 15 times/hour. Air velocity was 0.1~0.2m/s. The ammonia concentration was below 14/(mg/m³). Working illumination was 150~300LX and animal illumination was 15~20LX. The nutritional components of mouse food include: water content: ≤10%, crude protein: ≥18%, crude fat: ≥4%, crude fiber: ≥5%, minerals: ≥4%, calcium: 1.0–1.8%, Phosphorus: 0.6-1.2%. The water that mice drink is sterilized by the animal drinking system.
Cells SiHa were harvested during the exponential-growth phase, washed 3 times with serum-free medium, followed by resuspension at a concentration of 2 × 10^6 per mL. A total of 100 μL of cell suspension was injected into SCID mice subcutaneously. After the tumors had grown to 100−150 mm^3, all the mice were randomized into 5 groups (5 mice for each group, 25 mice total). The mice were treated daily via oral gavage administration with 12O (5, 10, or 20 mg kg^−1 d^−1), cisplatin (20 mg kg^−1 d^−1), or vehicle. […] Mice were monitored for side effects every day. Body weights and tumor sizes were determined every other day and volume was also observed. At the end-point of the study, all mice had survived. Mice were euthanized and the subcutaneous tumor tissues were stripped and collected. Tumor measurements were calculated using a digital vernier caliper, and the volumes were determined using the following calculation: (short^2) × long × 0.5. Inhibition rate of tumor growth was calculated using the following formula: 100 × {1 − [(tumor volume final-tumor volume initial) for 12O-treated group]/ [(tumor volume final-tumor volume initial) for the vehicle-treated group]} [23].

Data set [6] deals with SiHa cells. As to the kind of experiment: Colony formation assay, SiHa. In kind it is cell-based, human. From the text:
Colony formation assay assesses the effect of a therapy on clonogenic survival which is one of the most important parameters of therapy efficacy in oncology. […] We also performed colony formation assay in SKOV3 cells at concentrations according to IC50 values to confirm the result (Figure S3).
Cells treated with indicated compounds or vehicle were washed with PBS, trypsinized, and reseeded into 6-well plates at 500–1000 cells per well. The colonies were allowed to form for 10–15 days. At the end of the culture, cells were washed with PBS, fixed with methanol for 30 min, then stained with 0.5% crystal violet overnight. After careful washing, the images were taken.

Data set [7] deals with SiHa. As to the kind of experiment: CCK-8 cell growth inhibition, SiHa. It counts as cell-based, human. The settings on record: Homo sapiens, SiHa; CCK-8 assay, 72-h incubation; read-out: Cell Lines IC50 SiHa. On the procedure: In vitro anticancer screening of all newly synthesized compounds towards human solid tumor cells, cervical (SiHa) and ovarian (SKOV3) cancer cell lines, was carried out by standard CCK-8 assay with cisplatin as the positive control, as cisplatin is one of the most used chemotherapy drugs. […] The compound was further evaluated in a dose response study against a panel of solid tumor cells, including cervical cancer cell lines (SiHa and HeLa), ovarian cancer cell lines (SKOV3 and OVCAR-5), breast cancer cell lines (4T1 and MCF-7), lung cancer cell lines (A549 and H460) to test cytotoxic activity. The IC50 values were summarized in Table 2, including the cytotoxic activity of the cisplatin used as reference compound.
The viability of cells as determined using the CCK8 assay method. Cells were seeded (2000–3000 cells per well) in 96-well plates. After incubation for 24 h in serum-containing media, the cells were treated with drugs at different concentrations diluted with culture medium for 72 h at 37 °C with a 5% CO2 atmosphere. Then, 10 μL CCK8 regent (Promega, WI) was added to each well, and the plates were incubated for 1–4 h at 37 °C. Finally, absorbance values of test wells (AS), control wells (AC) and blank wells (Ab) at 450 nm were read using the Microplate Reader (Promega, WI). Inhibition ratios were calculated as follows: [(AC − AS)/ (AC−Ab)] × 100%. IC50 values were calculated using GraphPad software.
(In general: Formazan colour is commonly taken as a measure of viable cells.)

T4 sequence (P06493 whole entry): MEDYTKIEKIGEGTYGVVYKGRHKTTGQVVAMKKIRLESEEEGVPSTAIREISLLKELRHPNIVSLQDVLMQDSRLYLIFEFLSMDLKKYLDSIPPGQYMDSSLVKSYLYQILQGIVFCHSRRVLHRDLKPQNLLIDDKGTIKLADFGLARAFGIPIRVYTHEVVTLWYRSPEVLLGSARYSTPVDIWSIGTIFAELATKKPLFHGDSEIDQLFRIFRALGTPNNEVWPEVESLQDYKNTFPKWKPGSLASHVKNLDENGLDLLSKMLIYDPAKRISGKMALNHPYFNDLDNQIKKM
T4 sequence (P14635 whole entry partner): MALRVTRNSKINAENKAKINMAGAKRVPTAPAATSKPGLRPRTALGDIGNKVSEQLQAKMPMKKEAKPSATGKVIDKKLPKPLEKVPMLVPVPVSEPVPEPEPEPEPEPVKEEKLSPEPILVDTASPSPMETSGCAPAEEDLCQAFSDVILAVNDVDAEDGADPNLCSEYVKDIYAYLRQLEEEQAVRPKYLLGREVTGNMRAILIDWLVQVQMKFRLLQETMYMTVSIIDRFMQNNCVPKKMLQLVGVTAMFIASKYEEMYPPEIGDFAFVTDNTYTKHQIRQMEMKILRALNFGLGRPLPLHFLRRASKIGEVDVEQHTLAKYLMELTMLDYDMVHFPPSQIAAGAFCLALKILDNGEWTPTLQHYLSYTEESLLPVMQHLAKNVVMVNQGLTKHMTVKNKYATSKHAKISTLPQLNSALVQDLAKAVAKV
T3 sequence (P11802 whole entry): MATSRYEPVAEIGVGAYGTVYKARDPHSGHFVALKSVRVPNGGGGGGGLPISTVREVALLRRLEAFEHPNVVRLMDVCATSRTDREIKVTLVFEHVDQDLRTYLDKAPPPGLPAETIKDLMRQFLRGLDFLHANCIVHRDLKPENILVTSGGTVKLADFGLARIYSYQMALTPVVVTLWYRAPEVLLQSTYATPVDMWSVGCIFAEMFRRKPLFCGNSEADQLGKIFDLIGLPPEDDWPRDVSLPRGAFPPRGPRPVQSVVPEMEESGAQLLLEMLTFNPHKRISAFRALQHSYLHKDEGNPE
T3 sequence (P30281 whole entry partner): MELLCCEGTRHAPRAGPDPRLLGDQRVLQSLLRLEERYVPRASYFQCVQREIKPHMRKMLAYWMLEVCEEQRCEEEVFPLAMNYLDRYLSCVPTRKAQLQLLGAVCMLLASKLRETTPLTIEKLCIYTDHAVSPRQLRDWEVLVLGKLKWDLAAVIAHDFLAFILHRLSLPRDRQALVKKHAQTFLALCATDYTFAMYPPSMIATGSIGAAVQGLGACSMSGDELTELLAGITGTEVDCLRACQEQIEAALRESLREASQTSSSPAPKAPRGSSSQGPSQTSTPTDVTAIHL
T1 sequence (Q00534 whole entry): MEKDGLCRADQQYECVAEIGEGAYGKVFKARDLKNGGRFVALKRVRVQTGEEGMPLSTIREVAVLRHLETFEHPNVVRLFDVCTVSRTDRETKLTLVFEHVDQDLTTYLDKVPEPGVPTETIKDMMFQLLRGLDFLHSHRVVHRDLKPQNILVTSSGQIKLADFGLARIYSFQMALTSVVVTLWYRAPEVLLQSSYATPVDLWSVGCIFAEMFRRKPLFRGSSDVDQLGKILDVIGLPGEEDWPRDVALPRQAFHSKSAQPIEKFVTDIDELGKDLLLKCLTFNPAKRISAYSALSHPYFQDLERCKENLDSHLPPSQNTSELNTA
T1 sequence (P30281 whole entry partner): as the sequence (P30281 whole entry partner) above

Turning to `CC(C)n1nnc2ccc(-c3nc(Nc4ccc(CNC(=O)C5(C(=O)Nc6ccccc6)CC5)cc4)ncc3F)cc21` [12O], the inhibition (in general, how much of the control response was suppressed) at 1 µM in data set [1] was 74%; in data set [2] (1 µM) it was 99%; in data set [3] (1 µM), 91%; in data set [4] (1 µM), 98%. The IC50 (usually the midpoint of a concentration-inhibition curve) is 6 nM in data set [2], 157 nM in data set [3], 10 nM in data set [4] and 9 nM in data set [7]. Moreover, the “Tumor growth inhibition (TGI)” value in data set [5] (5 mg/kg oral) is reported as 51.25%; in data set [5] (10 mg/kg oral), 65.52%; in data set [5] (20 mg/kg oral), 79.29%. In data set [5] (SiHa xenograft mice, 5, 10 and 20 mg/kg oral daily), the “toxicity in treated mice (body weight)” value was “without obvious toxicity”. In addition, the formation of colonies entry in data set [6] is listed as “dose-dependently decreased”.
